Data set [1] can be described thus: Growth and condition (weight, length, fitness factor) on 1% Neu5Ac feed. Type of data set: in vivo, Atlantic salmon (Salmo salar). The following applies: postsmolt, Day 78. The method, then:
(§1) The example describes additional results obtained from feeding salmon a diet containing 1% Neu5Ac w/w. A feeding and morbidity experiment with Atlantic salmon (Salmo salar) was carried out at the Industrial Laboratory in Bergen (ILAB). The purpose of the trial was to investigate the effect of adding 1% Neu5Ac to feed on growth, certain fish health indicators, and the fish's resistance and welfare when infected with salmon lice and ILA virus, respectively. The trial included six main phases, the last two of which ran parallel with different infectious agents (FIG. 4).
(§2) Day 1-8: Acclimatization. Presmolt (approx. 40 g starting weight), freshwater phase. • Bulk weighing of all fish on day 1. • NB: All the fish received exclusively control feed during the acclimatization phase. • Day 8: First sampling. Day 9-41: Growth and preparation for smoltification, freshwater phase. • Different diets started (and continued) from day 9 onwards. • Light regime changed from 12:12 light/dark to 24 hours light on day 15. • Bulk weighing of fish on day 25. • Temperature increased from 12 to 14 degrees on day 28. • Smoltification starts in response to changed light regime and changed temperature. • Day 36: Second sampling. • Bulk weighing of fish on day 37. Day 42-50: Smoltification, transition and acclimatization to saltwater phase. • From 20 salt water from day 42, full salinity and presumed complete smoltification by day 44. • Day 50: Third sampling. • Day 51-78: Postsmolt, growth in seawater phase. • Growth on different diets, no other manipulations. • Day 78: Fourth sampling. Day 79-94: Infection test—salmon lice • A proportion of the fish were taken out of all test vessels on day 79; anesthetized, marked, collected in a common large vessel and infected with salmon lice. • Bulk weighing of the fish taken out for the lice test. • The experimental fish were then distributed according to original diet group, in two new vessels, for further observation. • Day 94: Fourth sampling, lice test completed. […]

Data set [2] is described as follows: Sialic acids in skin and intestinal mucus and plasma of salmon fed 1% Neu5Ac (bioavailability). Type of data set: in vivo, Atlantic salmon (Salmo salar). As to the method:
as §1
as §2, with “sampling.” for “sampling. Day 79-94: Infection test—salmon lice • A proportion of the fish were taken out of all test vessels on day 79; anesthetized, marked, collected in a common large vessel and infected with salmon lice. • Bulk weighing of the fish taken out for the lice test. • The experimental fish were then distributed according to original diet group, in two new vessels, for further observation. • Day 94: Fourth sampling, lice test completed.”
To separate life history effects from a general assessment of bioavailability, the samples from the longest continuous growth phase are first analyzed without experimental manipulations. […]

Data set [3] can be described thus: Example 2 mucosal health of gills and skin after sea lice challenge. Particulars: fifteen days following challenge with salmon lice; 2 of 3 tanks. Type of data set: in vivo, Atlantic salmon. The method, then:
An experiment was conducted to determine the mucosal health status of gills, dorsal skin and foregut of Atlantic salmon smolt and postsmolt given sialic acid (NANA) treatment at a single dose (1% in feed) or a control treatment and challenged by sea lice exposure.
Atlantic salmon were reared in the flow-through system of the ILAB facility at 12 C and were reared in freshwater through smoltification to seawater in six tanks, 3 tanks per treatment. The gills and dorsal skin of the fish (n=30 per date, 5 from each replicate tank) were individually sampled on each of the following dates. The foregut of 30 fish was sampled once, while skin samples were not collected on the same date. The samples were processed (buffered formalin fixation, paraffin embedding, sectioned and stained with PAS-AB), digitally scanned and analyzed for mucous cell density (% epithelium filled with mucous cells, A), defense (mucous) cell sizes (mucous cell area, μm^2, D) and defense activity (barrier status, =(1/(A:D))×1000).
The fish were transferred to two large holding tanks and challenged with salmon lice and sampled 15 days later.

“Also recorded” adds a separate entry of the source.

Take `CC(=O)N[C@H]1[C@H]([C@H](O)[C@H](O)CO)OC(O)(C(=O)O)C[C@@H]1O` (stereo partly shown) [Neu5Ac, N-acetyl neuraminic acid]: in data set [1], the “% Increase in fitness (condition) factor vs control” value is on record as 19%, the “% Increase in length vs control” value turned out to be 5% and the “% Increase in weight vs control” value was 22%. Further, the “Bioavailability of free Neu5Ac in feed” value in data set [2] (1% Neu5Ac in feed, salmon, listed as Free Neu5Ac) is listed as “bioavailable; also recorded: biologically available”. Also, in data set [2] (postsmolt, Day 78), the “Free Neu5Ac in the intestinal mucosa vs control diet” value is listed as “highly significant” and the “Total Neu5Ac in the intestinal mucosa vs control diet (elevated level)” value was “weakly significant”. In data set [3], the “Gill mucous cell size after challenge” value is given as “not significantly reduced”.
